Experimental data from PMC10643123, “Integrated chemical and genetic screens unveil FSP1 mechanisms of ferroptosis regulation” (Nature Structural & Molecular Biology, 2023).
Where two headings read alike, the source gives them in different places.

Legend:
hFSP1 (human FSP1) = target: T1, hFSP1 (human FSP1) (Homo sapiens, UniProt Q9BRQ8); experiment: resazurin reduction, fluorescence; format: biochemical
T1 construct: gene AIFM2; recombinant from E. coli BL21, Ni-NTA purified (His tag implied); HA-tagged in Pfa1 cells for cell assays; cDNA carries C>T:1008 (probably silent)
T1 sequence (Q9BRQ8 2-373): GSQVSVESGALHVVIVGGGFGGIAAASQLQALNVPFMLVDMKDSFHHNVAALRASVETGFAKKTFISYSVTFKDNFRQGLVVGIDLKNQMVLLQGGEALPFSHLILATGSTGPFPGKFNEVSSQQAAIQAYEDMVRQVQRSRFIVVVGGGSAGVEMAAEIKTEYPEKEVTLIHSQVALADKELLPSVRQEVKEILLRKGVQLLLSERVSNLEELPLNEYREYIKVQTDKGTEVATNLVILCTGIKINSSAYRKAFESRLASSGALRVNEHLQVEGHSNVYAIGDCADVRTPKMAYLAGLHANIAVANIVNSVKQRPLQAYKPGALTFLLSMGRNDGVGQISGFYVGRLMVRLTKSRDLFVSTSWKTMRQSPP

mFsp1 (mouse FSP1) = target: T2, mFsp1 (mouse FSP1) (Mus musculus, UniProt Q8BUE4); experiment: resazurin reduction, fluorescence; format: biochemical
T2 construct: gene Aifm2; recombinant from E. coli BL21, Ni-NTA purified; HA-tagged, codon-optimized in Pfa1 cells for cell assays
T2 sequence (Q8BUE4 2-373): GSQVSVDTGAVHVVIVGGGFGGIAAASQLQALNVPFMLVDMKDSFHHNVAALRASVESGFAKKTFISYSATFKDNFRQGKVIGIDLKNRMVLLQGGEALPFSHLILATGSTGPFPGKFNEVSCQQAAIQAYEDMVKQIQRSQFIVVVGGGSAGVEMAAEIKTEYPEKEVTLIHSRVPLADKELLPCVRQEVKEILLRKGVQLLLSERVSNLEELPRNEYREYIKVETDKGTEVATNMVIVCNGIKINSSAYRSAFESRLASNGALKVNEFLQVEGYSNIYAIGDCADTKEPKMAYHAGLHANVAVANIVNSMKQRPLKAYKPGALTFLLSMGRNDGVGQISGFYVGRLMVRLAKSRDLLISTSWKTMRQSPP
Excerpt: resazurin reduction, fluorescence on mFsp1 (mouse FSP1) | both hFSP1 and mFsp1 enzyme activity are equally sensitive to viFSP1

IC50 (mFsp1 (mouse FSP1))	IC50 (hFSP1 (human FSP1); read-out: IC50)	SMILES	IC50 (hFSP1 (human FSP1); […] NADH, […] resazurin, TBS, […] C)
		Cc1ccc(-c2c(C#N)c(N)n3c(nc4ccccc43)c2C#N)cc1 [iFSP1]	dose–response curves for the effect of iFSP1 on the activity of FSP1 mutants
83 nM	34 nM	COc1ccc(N2CC(=O)C(c3nc(C)cs3)=C2N)c(OC)c1 [viFSP1]	
